Measurements as given in patent US20100056601A1, “Control agent containing N-Substituted indole derivative for acarian parasitic on animal” (Nippon Kayaku Kabushiki Kaisha, priority 2004, published 2010).
Like-named read-outs stand apart in the source and are kept apart here.

Columns and labels:
[1] = tested on: hatched larvae of Haemaphysalis longicornis; assay: In vitro control effect on acarians, treated Pasteur's pipette test (Test Example 1); format: in vivo
Protocol: Neoglamine was added to the emulsion of Example 1 in an amount of 0.01% and the resulting mixture was diluted with tap water to each concentration shown in Table 2. After a commercial 0.5×15 cm Pasteur's pipette was immersed in the dilution for 30 seconds, it was vertically stood on cotton and air-dried. The head of the air-dried Pasteur's pipette was plugged with cotton, and 10 hatched larvae of Haemaphysalis longicornis were sucked from the cotton-plugged end side by the use of a suction pump and then the other end was sealed with putty. After the suction, the pipette was allowed to stand in a desiccator containing a saturated aqueous disodium hydrogenphosphate solution and maintained at 23° C. Observation was carried out after 2 days and after 4 days. Fipronil was used as a positive control.

[2] = tested on: hatched larvae of Haemaphysalis longicornis; assay: In vivo control effect on ticks on rabbit ears, spot-on treatment (Test Example 2)
Protocol: About 40 hatched larvae of Haemaphysalis longicornis were inoculated on the ears of a rabbit by the use of a cloth bag, made parasitic on the rabbit and allowed to suck the blood. After 24 hours, the cloth bag was taken off and ticks sucking the blood were counted. […] The left ear was not treated. Three hours, 1 day and 2 days after the spot-on treatment, the living ticks on each of the right and left ears were counted. As a control animal, there was used a rabbit whose right ear had been treated with only the base ingredient for preparation for spot-on treatment and whose left ear had been not treated.

std:ddy strain male mice = assay: Toxicity to mouse, administration into the stomach (Test Example 3); format: in vivo; conditions: into the stomach in olive oil
Protocol: The compound listed in Table 1 or Fipronil was dissolved in olive oil to a predetermined concentration, and the resulting solution was directly administered into the stomachs of std:ddy strain male mice by the use of a probe. The dose was 30 mg/kg or 100 mg/kg. Whether the mice were alive or dead was observed 3 hours, 1 day, 7 days and 14 days after the administration.

[3] = tested on: two-spotted spider mite (Tetranychus urticae); assay: Comparative test: insecticidal effect on two-spotted spider mite, leaf immersion (Test Example 5); format: in vivo; conditions: for insecticidal activity against the two-spotted spider mites (in words): 200 ppm, 2 days after immersion; for mortality at 200 ppm: Tetranychus urticae, in Phaseolus vulgaris, 48 h, read-out: Mortality after 2 days (%)
Protocol: Twenty adult female two-spotted spider mites were released on the leaves of a potted kidney bean plant. One day after the release, the kidney bean leaves were immersed for several seconds in a chemical solution obtained by diluting a 20% emulsion of each compound with tap water to a concentration of 200 ppm. After air-dryness, the leaves were placed in a room thermostated at 25° C. Two days after the immersion, whether the adult two-spotted spider mites on the leaves were alive or dead were judged and the dead and alive were counted. The mortality was calculated.

cat = assay: Administration to a cat, spot-on dropping, clinical symptom (Test Example 4); conditions: for Clinical symptom: 0.5 ml spot-on
Source text: After the dropping, the clinical symptom of the cat was observed.

[4] = Haemaphysalis longicornis, 48 h, read-out: Mortality after 2 days
[5] = Haemaphysalis longicornis, 96 h, read-out: Mortality after 4 days
[6] = left ear (not treated), right ear spot-on 0.1 ml of 20% solution
[7] = right ear (treated), spot-on 0.1 ml of 20% solution

FC(Cl)(Cl)Sc1cn(-c2c(Cl)cc(C(F)(F)F)cc2Cl)c2ccccc12 [Compound 17, 1-(2,6-dichloro-4-trifluoromethylphenyl)-3-(dichlorofluoromethylthio)indole]
mortality at 0.1 ppm [1, 4]: 0%
mortality at 1 ppm [1, 4]: 20%
mortality at 10 ppm [1, 4]: 100%
mortality at 0.1 ppm [1, 5]: 0%
mortality at 1 ppm [1, 5]: 80%
mortality at 10 ppm [1, 5]: 100%
extermination of ticks on the treated right ear (in words) ([2]; in 3 hours after the treatment): quickly exterminated ticks on the right ear
extermination of ticks on the untreated left ear (in words) ([2]; in 1 day after the treatment): also exterminated ticks on the left ear
Number of living ticks, before dropping ([2]; left ear (not treated), baseline before spot-on on right ear): 15
Number of living ticks, after 3 hours [2, 6]: 15
Number of living ticks, after 1 day [2, 6]: 0
Number of living ticks, after 2 days [2, 6]: 0
Number of living ticks, before dropping ([2]; right ear (treated ear), baseline before spot-on of 0.1 ml 20% solution): 15
Number of living ticks, after 3 hours [2, 7]: 3
Number of living ticks, after 1 day [2, 7]: 1
Number of living ticks, after 2 days [2, 7]: 0
Cumulative mortality after 3 hours (std:ddy strain male mice; 30 mg/kg): 0/5
Cumulative mortality after 1 day (std:ddy strain male mice; 30 mg/kg): 0/5
Cumulative mortality after 7 days (std:ddy strain male mice; 30 mg/kg): 0/5
Cumulative mortality after 14 days (std:ddy strain male mice; 30 mg/kg): 0/5
Cumulative mortality after 3 hours (std:ddy strain male mice; 100 mg/kg): 0/5
Cumulative mortality after 1 day (std:ddy strain male mice; 100 mg/kg): 0/5
Cumulative mortality after 7 days (std:ddy strain male mice; 100 mg/kg): 0/5
Cumulative mortality after 14 days (std:ddy strain male mice; 100 mg/kg): 0/5
insecticidal activity against the two-spotted spider mites (in words) [3]: no insecticidal activity
mortality at 200 ppm [3]: 0%
Clinical symptom (cat; cat, dropping concentration 10%): No sign was recognized
Clinical symptom (cat; cat, dropping concentration 20%): No sign was recognized
Clinical symptom (cat; cat, dropping concentration 30%): No sign was recognized
abnormal sign due to the spot-on dropping (cat; cat, 10, 20 or 30% liquid drops): no abnormal sign
toxicity to cat (in words) (cat; cat, spot-on 10, 20 or 30% liquid drops): only low toxicity

FC(F)(F)Sc1cn(-c2c(Cl)cc(C(F)(F)F)cc2Cl)c2ccccc12 [Compound 25, 1-(2,6-dichloro-4-trifluoromethylphenyl)-3-(trifluoromethylthio)indole]
mortality at 0.01 ppm [1, 4]: 30%
mortality at 0.1 ppm [1, 4]: 100%
mortality at 1 ppm [1, 4]: 100%
mortality at 10 ppm [1, 4]: 100%
mortality at 0.01 ppm [1, 5]: 60%
mortality at 1 ppm [1, 5]: 100%
mortality at 10 ppm [1, 5]: 100%
Cumulative mortality after 3 hours (std:ddy strain male mice; 30 mg/kg): 0/5
Cumulative mortality after 1 day (std:ddy strain male mice; 30 mg/kg): 0/5
Cumulative mortality after 7 days (std:ddy strain male mice; 30 mg/kg): 0/5
Cumulative mortality after 14 days (std:ddy strain male mice; 30 mg/kg): 0/5
Cumulative mortality after 3 hours (std:ddy strain male mice; 100 mg/kg): 0/5
Cumulative mortality after 1 day (std:ddy strain male mice; 100 mg/kg): 0/5
Cumulative mortality after 7 days (std:ddy strain male mice; 100 mg/kg): 0/5
Cumulative mortality after 14 days (std:ddy strain male mice; 100 mg/kg): 0/5
insecticidal activity against the two-spotted spider mites (in words) [3]: no insecticidal activity
mortality at 200 ppm [3]: 0%

N#Cc1nn(-c2c(Cl)cc(C(F)(F)F)cc2Cl)c(N)c1[S+]([O-])C(F)(F)F (centres unmarked) [Fipronil, 5-amino-1-(2,6-dichloro-4-(trifluoromethyl)phenyl)-4-((trifluoromethyl)sulfinyl)-1H-pyrazole-3-carbonitrile, reference compound]
mortality at 0.1 ppm ([1]; 48 h, 0.1 ppm, Haemaphysalis longicornis larvae, 23° C., read-out: Mortality after 2 days): 30%
mortality at 1 ppm ([1]; 48 h, 1 ppm, Haemaphysalis longicornis larvae, 23° C., read-out: Mortality after 2 days): 100%
mortality at 10 ppm ([1]; 48 h, 10 ppm, Haemaphysalis longicornis larvae, 23° C., read-out: Mortality after 2 days): 100%
mortality at 0.1 ppm ([1]; 96 h, 0.1 ppm, Haemaphysalis longicornis larvae, 23° C., read-out: Mortality after 4 days): 60%
mortality at 1 ppm ([1]; 96 h, 1 ppm, Haemaphysalis longicornis larvae, 23° C., read-out: Mortality after 4 days): 100%
mortality at 10 ppm ([1]; 96 h, 10 ppm, Haemaphysalis longicornis larvae, 23° C., read-out: Mortality after 4 days): 100%
Cumulative mortality after 3 hours (std:ddy strain male mice; 30 mg/kg): 0/5
Cumulative mortality after 1 day (std:ddy strain male mice; 30 mg/kg): 1/5
Cumulative mortality after 7 days (std:ddy strain male mice; 30 mg/kg): 1/5
Cumulative mortality after 14 days (std:ddy strain male mice; 30 mg/kg): 1/5
Cumulative mortality after 3 hours (std:ddy strain male mice; 100 mg/kg): 1/5
Cumulative mortality after 1 day (std:ddy strain male mice; 100 mg/kg): 5/5
Cumulative mortality after 7 days (std:ddy strain male mice; 100 mg/kg): 5/5
Cumulative mortality after 14 days (std:ddy strain male mice; 100 mg/kg): 5/5
